In US9242945B2, “Substituted 2-benzylidene-2H-benzo[b][1,4]thiazin-3(4H)-ones, derivatives thereof, and therapeutic uses thereof” (TEMPLE UNIVERSITY—OF THE COMMONWEALTH SYSTEM OF HIGHER …, priority 2011, dated 2016):
Read-outs that look alike come from different tables or passages of the source.

Legend:
[1] = tested on: K562 (chronic myelogenous leukemia; leukemia cell line +ve for Bcr-Abl); assay: Cytotoxicity assay, K562 tumor cells; format: cell-based; details: Homo sapiens, K562, 96 h treatment
Protocol: (§1) The effect of the compounds of the invention on tumor cells was determined by the assay described by Latham et al., Oncogene 12:827-837 (1996). Tumor cells K562 (chronic myelogenous leukemia; leukemia cell line +ve for Bcr-Abl) or DU145 (prostate cancer) were plated in 12-well dishes at a cell density of 2.5×10^4 cells well. The plated cells were treated 24 hours later with a compound of the invention dissolved in DMSO at multiple concentrations ranging from 0.01 μM to 100 μM. The plates were examined 96 hours later under an inverted microscope, Olympus CK-2 using a 10× objective, and compound activity was noted by physical observation. When necessary, the total number of viable cells was determined by trypsinizing the wells and counting the number of viable cells, as determined by trypan blue exclusion, using a hemacytometer. Where “Lower” and “Upper” value are provided in Table 5, the IC50 was determined to be within that range. When only a “Lower” value is provided and no “Upper” value is listed, the IC50 was that value, or less than or greater than that value, as set forth in the Table.
(§2) The cytotoxicity of Compound 42, (Z)-6-((2,6-dichlorobenzyl)sulfonyl)-2-(4-hydroxy-3-nitrobenzylidene)-2H-benzo[b][1,4]thiazin-3(4H)-one, was determined according the assay method of Example 7 on the prostate (androgen dependent or independent), breast and pancreatic cancer cell lines listed in Table 6A, below, and the additional cell lines listed in Table 6B, below. The human mesenchymal stem cell line HMSC.hTERT and normal human fibroblast cell line HFL was included in the test.

[2] = tested on: DU145 (prostate cancer); assay: Cytotoxicity assay, DU145 tumor cells; format: cell-based; details: Homo sapiens, DU-145, 96 h treatment
Protocol: as §1, §2

[3] = lower limit of the IC50 range, or the IC50 itself (or its bound) where no Upper value is listed, read-out: K562 IC50 (μm) Lower (μm)
[4] = upper limit of the IC50 range, read-out: K562 IC50 (μm) Upper (μm)
[5] = lower limit of the IC50 range, or the IC50 itself (or its bound) where no Upper value is listed, read-out: DU145 IC50 (μm) Lower (μm)
[6] = upper limit of the IC50 range, read-out: DU145 IC50 (μm) Upper (μm)

CC(=O)Oc1ccc(/C=C2\Sc3ccc(Cl)cc3NC2=O)cc1[N+](=O)[O-] [Compound 1, (Z)-4-((6-chloro-3-oxo-3,4-dihydro-2H-benzo[b][1,4]thiazin-2-ylidene)methyl)-2-nitrophenyl acetate]
IC50 [1, 3]: ≥ 10000 nM | IC50 [1, 4]: ≤ 25000 nM | IC50 [2, 5]: ≥ 1000 nM | IC50 [2, 6]: ≤ 10000 nM

COc1ccc2c(c1)S/C(=C\c1ccc(OC(C)=O)c([N+](=O)[O-])c1)C(=O)N2 [Compound 2, (Z)-4-((7-methoxy-3-oxo-3,4-dihydro-2H-benzo[b][1,4]thiazin-2-ylidene)methyl)-2-nitrophenyl acetate]
IC50 [1, 3]: ≥ 1000 nM | IC50 [1, 4]: ≤ 10000 nM | IC50 [2, 5]: ≥ 1000 nM | IC50 [2, 6]: ≤ 10000 nM

CC(=O)Oc1ccc(/C=C2\Sc3cc(Br)ccc3NC2=O)cc1[N+](=O)[O-] [Compound 3, (Z)-4-((7-bromo-3-oxo-3,4-dihydro-2H-benzo[b][1,4]thiazin-2-ylidene)methyl)-2-nitrophenyl acetate]
IC50 [1, 3]: ≥ 1000 nM | IC50 [1, 4]: ≤ 10000 nM | IC50 [2, 5]: ≥ 10000 nM | IC50 [2, 6]: ≤ 25000 nM

CC(=O)Oc1ccc(/C=C2\Sc3cc(C)ccc3NC2=O)cc1[N+](=O)[O-] [Compound 4, (Z)-4-((7-methyl-3-oxo-3,4-dihydro-2H-benzo[b][1,4]thiazin-2-ylidene)methyl)-2-nitrophenyl acetate]
IC50 [1, 3]: ≥ 1000 nM | IC50 [1, 4]: ≤ 10000 nM | IC50 [2, 5]: ≥ 1000 nM | IC50 [2, 6]: ≤ 10000 nM

CC(=O)Oc1ccc(/C=C2\Sc3cc(C(=O)O)ccc3NC2=O)cc1[N+](=O)[O-] [Compound 5, (Z)-2-(4-acetoxy-3-nitrobenzylidene)-3-oxo-3,4-dihydro-2H-benzo[b][1,4]thiazine-7-carboxylic acid]
IC50 [1, 3]: ≥ 50000 nM | IC50 [1, 4]: ≤ 100000 nM | IC50 [2, 5]: > 100000 nM

CC(=O)Oc1ccc(/C=C2\Sc3cc(F)ccc3NC2=O)cc1[N+](=O)[O-] [Compound 6, (Z)-4-((7-fluoro-3-oxo-3,4-dihydro-2H-benzo[b][1,4]thiazin-2-ylidene)methyl)-2-nitrophenyl acetate]
IC50 [1, 3]: ≥ 1000 nM | IC50 [1, 4]: ≤ 10000 nM | IC50 [2, 6]: ≤ 1000 nM

CC(=O)Oc1ccc(/C=C2\Sc3ccc(F)cc3NC2=O)cc1[N+](=O)[O-] [Compound 7, (Z)-4-((6-fluoro-3-oxo-3,4-dihydro-2H-benzo[b][1,4]thiazin-2-ylidene)methyl)-2-nitrophenyl acetate]
IC50 [1, 3]: ≥ 1000 nM | IC50 [1, 4]: ≤ 10000 nM | IC50 [2, 5]: ≥ 1000 nM | IC50 [2, 6]: ≤ 10000 nM

CC(=O)Oc1ccc(/C=C2\Sc3ccc(S(=O)(=O)Cc4c(Cl)cccc4Cl)cc3NC2=O)cc1[N+](=O)[O-] [Compound 8, (Z)-4-((6-((2,6-dichlorobenzyl)sulfonyl)-3-oxo-3,4-dihydro-2H-benzo[b][1,4]thiazin-2-ylidene)methyl)-2-nitrophenyl acetate]
IC50 [1, 3]: 75 nM | IC50 [2, 5]: 100 nM

CC(=O)Oc1ccc(/C=C2\Sc3ccc(S(=O)(=O)Cc4c(Cl)cccc4Cl)cc3NC2=O)cc1 [Compound 9, (Z)-4-((6-((2,6-dichlorobenzyl)sulfonyl)-3-oxo-3,4-dihydro-2H-benzo[b][1,4]thiazin-2-ylidene)methyl)phenyl acetate]
IC50 [1, 3]: < 1000 nM | IC50 [2, 5]: < 1000 nM

O=C1Nc2cc(S(=O)(=O)Cc3c(Cl)cccc3Cl)ccc2S/C1=C\c1ccccc1 [Compound 10, (Z)-2-benzylidene-6-((2,6-dichlorobenzyl)sulfonyl)-2H-benzo[b][1,4]thiazin-3(4H)-one]
IC50 [1, 3]: ≥ 1000 nM | IC50 [1, 4]: ≤ 10000 nM | IC50 [2, 5]: < 1000 nM

COc1ccc(/C=C2\Sc3ccc(S(=O)(=O)Cc4c(Cl)cccc4Cl)cc3NC2=O)cc1[N+](=O)[O-] [Compound 11, (Z)-6-((2,6-dichlorobenzyl)sulfonyl)-2-(4-methoxy-3-nitrobenzylidene)-2H-benzo[b][1,4]thiazin-3(4H)-one]
IC50 [1, 3]: ≥ 250 nM | IC50 [1, 4]: ≤ 500 nM | IC50 [2, 5]: ≥ 250 nM | IC50 [2, 6]: ≤ 500 nM

COc1ccc(/C=C2\Sc3ccc(S(=O)(=O)Cc4c(Cl)cccc4Cl)cc3NC2=O)cc1N [Compound 12, (Z)-2-(3-amino-4-methoxybenzylidene)-6-((2,6-dichlorobenzyl)sulfonyl)-2H-benzo[b][1,4]thiazin-3(4H)-one]
IC50 [1, 3]: ≥ 100 nM | IC50 [1, 4]: ≤ 250 nM | IC50 [2, 5]: ≥ 250 nM | IC50 [2, 6]: ≤ 500 nM

CN1CCN(c2ccc(/C=C3\Sc4ccc(S(=O)(=O)Cc5c(Cl)cccc5Cl)cc4NC3=O)cc2)CC1 [Compound 13, (Z)-6-((2,6-dichlorobenzyl)sulfonyl)-2-(4-(4-methylpiperazin-1-yl)benzylidene)-2H-benzo[b][1,4]thiazin-3(4H)-one]
IC50 [1, 3]: ≥ 500 nM | IC50 [1, 4]: ≤ 1000 nM | IC50 [2, 5]: ≥ 1000 nM | IC50 [2, 6]: ≤ 10000 nM

O=C1Nc2cc(S(=O)(=O)Cc3c(Cl)cccc3Cl)ccc2S/C1=C\c1ccc([N+](=O)[O-])cc1 [Compound 14, (Z)-6-((2,6-dichlorobenzyl)sulfonyl)-2-(4-nitrobenzylidene)-2H-benzo[b][1,4]thiazin-3(4H)-one]
IC50 [1, 3]: ≥ 1000 nM | IC50 [1, 4]: ≤ 10000 nM | IC50 [2, 5]: ≥ 1000 nM | IC50 [2, 6]: ≤ 10000 nM

Nc1ccc(/C=C2\Sc3ccc(S(=O)(=O)Cc4c(Cl)cccc4Cl)cc3NC2=O)cc1 [Compound 15, (Z)-2-(4-aminobenzylidene)-6-((2,6-dichlorobenzyl)sulfonyl)-2H-benzo[b][1,4]thiazin-3(4H)-one]
IC50 [1, 3]: 30 nM | IC50 [2, 5]: 40 nM

O=C1Nc2cc(S(=O)(=O)Cc3c(Cl)cccc3Cl)ccc2S/C1=C\c1ccc(F)cc1 [Compound 16, (Z)-6-((2,6-dichlorobenzyl)sulfonyl)-2-(4-fluorobenzylidene)-2H-benzo[b][1,4]thiazin-3(4H)-one]
IC50 [1, 3]: ≥ 1000 nM | IC50 [1, 4]: ≤ 10000 nM | IC50 [2, 5]: ≥ 1000 nM | IC50 [2, 6]: ≤ 10000 nM

O=C1Nc2cc(S(=O)(=O)Cc3c(Cl)cccc3Cl)ccc2S/C1=C\c1ccc(Cl)cc1 [Compound 17, (Z)-2-(4-chlorobenzylidene)-6-((2,6-dichlorobenzyl)sulfonyl)-2H-benzo[b][1,4]thiazin-3(4H)-one]
IC50 [1, 3]: ≥ 1000 nM | IC50 [1, 4]: ≤ 10000 nM | IC50 [2, 5]: ≥ 1000 nM | IC50 [2, 6]: ≤ 10000 nM

O=C1Nc2cc(S(=O)(=O)Cc3c(Cl)cccc3Cl)ccc2S/C1=C\c1ccc(Br)cc1 [Compound 18, (Z)-2-(4-bromobenzylidene)-6-((2,6-dichlorobenzyl)sulfonyl)-2H-benzo[b][1,4]thiazin-3(4H)-one]
IC50 [1, 3]: ≥ 1000 nM | IC50 [1, 4]: ≤ 10000 nM | IC50 [2, 5]: ≥ 1000 nM | IC50 [2, 6]: ≤ 10000 nM

O=C1Nc2cc(S(=O)(=O)Cc3c(Cl)cccc3Cl)ccc2S/C1=C\c1ccc(Cl)cc1Cl [Compound 22, (Z)-6-((2,6-dichlorobenzyl)sulfonyl)-2-(2,4-dichlorobenzylidene)-2H-benzo[b][1,4]thiazin-3(4H)-one]
IC50 [1, 3]: ≥ 1000 nM | IC50 [1, 4]: ≤ 10000 nM | IC50 [2, 5]: ≥ 1000 nM | IC50 [2, 6]: ≤ 10000 nM

CC(=O)n1cc(/C=C2\Sc3ccc(S(=O)(=O)Cc4c(Cl)cccc4Cl)cc3NC2=O)c2ccccc21 [Compound 26, (Z)-2-((1-acetyl-1H-indol-3-yl)methylene)-6-((2,6-dichlorobenzyl)sulfonyl)-2H-benzo[b][1,4]thiazin-3(4H)-one]
IC50 [1, 3]: ≥ 500 nM | IC50 [1, 4]: ≤ 1000 nM | IC50 [2, 5]: ≥ 500 nM | IC50 [2, 6]: ≤ 1000 nM

O=C1Nc2cc(S(=O)(=O)Cc3c(Cl)cccc3Cl)ccc2S/C1=C\c1ccc(Cl)c([N+](=O)[O-])c1 [Compound 29, (Z)-2-(4-chloro-3-nitrobenzylidene)-6-((2,6-dichlorobenzyl)sulfonyl)-2H-benzo[b][1,4]thiazin-3(4H)-one]
IC50 [1, 3]: ≥ 1000 nM | IC50 [1, 4]: ≤ 10000 nM | IC50 [2, 5]: ≥ 500 nM | IC50 [2, 6]: ≤ 1000 nM

O=C1Nc2cc(S(=O)(=O)Cc3c(Cl)cccc3Cl)ccc2S/C1=C\c1ccc(F)cc1F [Compound 30, (Z)-6-((2,6-dichlorobenzyl)sulfonyl)-2-(2,4-difluorobenzylidene)-2H-benzo[b][1,4]thiazin-3(4H)-one]
IC50 [1, 3]: ≥ 1000 nM | IC50 [1, 4]: ≤ 10000 nM | IC50 [2, 5]: ≥ 1000 nM | IC50 [2, 6]: ≤ 10000 nM

O=C1Nc2cc(S(=O)(=O)Cc3c(Cl)cccc3Cl)ccc2S/C1=C\c1c(F)cc(F)cc1F [Compound 31, (Z)-6-((2,6-dichlorobenzyl)sulfonyl)-2-(2,4,6-trifluorobenzylidene)-2H-benzo[b][1,4]thiazin-3(4H)-one]
IC50 [1, 3]: ≥ 1000 nM | IC50 [1, 4]: ≤ 10000 nM | IC50 [2, 5]: ≥ 1000 nM | IC50 [2, 6]: ≤ 10000 nM

COC(=O)c1ccc(/C=C2\Sc3ccc(S(=O)(=O)Cc4c(Cl)cccc4Cl)cc3NC2=O)cc1 [Compound 32, (Z)-methyl 4-((6-((2,6-dichlorobenzyl)sulfonyl)-3-oxo-3,4-dihydro-2H-benzo[b][1,4]thiazin-2-ylidene)methyl)benzoate]
IC50 [1, 3]: ≥ 1000 nM | IC50 [1, 4]: ≤ 10000 nM | IC50 [2, 5]: ≥ 500 nM | IC50 [2, 6]: ≤ 1000 nM
